Test results from the NIST ThermoML archive (doi:10.1016/j.tca.2008.05.004).
Several values for one entry are separate records, joined by “and”; a condition that tells them apart may be missing. Identical values can stand only once.

Test: molar heat capacity at constant pressure
Details: 101.33 kPa, Crystal, Small (less than 1 g) adiabatic calorimetry

O=P([O-])([O-])[O-].[La+3] [lanthanum orthophosphate]
Details | molar heat capacity at constant pressure
2 K | 0.00122 J/K/mol
4 K | 0.01153 J/K/mol
6 K | 0.03674 J/K/mol
8 K | 0.08437 J/K/mol
10 K | 0.1669 J/K/mol
12 K | 0.2994 J/K/mol
14 K | 0.4971 J/K/mol
16 K | 0.7738 J/K/mol
18 K | 1.141 J/K/mol
20 K | 1.605 J/K/mol
25 K | 3.201 J/K/mol
25.03 K | 3.418 J/K/mol
25.8 K | 3.691 J/K/mol
26.57 K | 3.997 J/K/mol
27.34 K | 4.269 J/K/mol
28.12 K | 4.62 J/K/mol
28.89 K | 4.94 J/K/mol
29.68 K | 5.294 J/K/mol
30 K | 5.306 J/K/mol
30.46 K | 5.695 J/K/mol
31.24 K | 6.098 J/K/mol
32.03 K | 6.511 J/K/mol
32.86 K | 6.925 J/K/mol
33.65 K | 7.346 J/K/mol
34.44 K | 7.659 J/K/mol
35 K | 7.89 J/K/mol
35.24 K | 8.049 J/K/mol
36.04 K | 8.576 J/K/mol
36.84 K | 9.023 J/K/mol
37.64 K | 9.523 J/K/mol
38.44 K | 9.994 J/K/mol
39.25 K | 10.48 J/K/mol
40 K | 10.82 J/K/mol
40.05 K | 10.95 J/K/mol
40.86 K | 11.44 J/K/mol
41.67 K | 11.92 J/K/mol
42.48 K | 12.4 J/K/mol
43.29 K | 12.88 J/K/mol
44.1 K | 13.34 J/K/mol
44.92 K | 13.87 J/K/mol
45 K | 13.97 J/K/mol
45.76 K | 14.39 J/K/mol
48.2 K | 16.03 J/K/mol
49.02 K | 16.52 J/K/mol
49.84 K | 17.11 J/K/mol
50 K | 17.23 J/K/mol
50.65 K | 17.64 J/K/mol
51.47 K | 18.19 J/K/mol
52.29 K | 18.72 J/K/mol
53.11 K | 19.27 J/K/mol
53.93 K | 19.79 J/K/mol
54.75 K | 20.27 J/K/mol
55.57 K | 20.78 J/K/mol
56.4 K | 21.36 J/K/mol
57.22 K | 21.86 J/K/mol
58.04 K | 22.41 J/K/mol
58.89 K | 22.97 J/K/mol
59.72 K | 23.49 J/K/mol
60 K | 23.73 J/K/mol
60.54 K | 24.01 J/K/mol
61.37 K | 24.55 J/K/mol
62.2 K | 25.1 J/K/mol
63.03 K | 25.6 J/K/mol
63.86 K | 26.14 J/K/mol
64.69 K | 26.66 J/K/mol
65.52 K | 27.24 J/K/mol
66.35 K | 27.76 J/K/mol
67.19 K | 28.22 J/K/mol
68.02 K | 28.62 J/K/mol
68.86 K | 29.07 J/K/mol
69.7 K | 29.48 J/K/mol
70 K | 29.93 J/K/mol
70.93 K | 30.26 J/K/mol
72.58 K | 31.21 J/K/mol
73.58 K | 31.56 J/K/mol
74.82 K | 32.17 J/K/mol
76.07 K | 33.31 J/K/mol
77.32 K | 33.78 J/K/mol
78.55 K | 34.74 J/K/mol
80 K | 35.68 J/K/mol
80.58 K | 36.06 J/K/mol
82.23 K | 36.9 J/K/mol
83.88 K | 37.58 J/K/mol
85.53 K | 38.39 J/K/mol
87.18 K | 39.57 J/K/mol
88.83 K | 40.58 J/K/mol
90 K | 40.96 J/K/mol
90.48 K | 41.33 J/K/mol
92.13 K | 42.17 J/K/mol
93.78 K | 42.97 J/K/mol
95.43 K | 43.79 J/K/mol
97.08 K | 44.53 J/K/mol
100 K | 45.82 J/K/mol
101.86 K | 46.91 J/K/mol
102.42 K | 47.17 J/K/mol
104.27 K | 47.95 J/K/mol
104.88 K | 48.25 J/K/mol
106.71 K | 49.05 J/K/mol
107.34 K | 49.42 J/K/mol
109.16 K | 50.14 J/K/mol
109.8 K | 50.46 J/K/mol
110 K | 50.3 J/K/mol
111.6 K | 51.16 J/K/mol
112.25 K | 51.55 J/K/mol
114.04 K | 52.08 J/K/mol
114.7 K | 52.52 J/K/mol
116.47 K | 53.12 J/K/mol
117.16 K | 53.55 J/K/mol
119.61 K | 54.49 J/K/mol
120 K | 54.48 J/K/mol
122.06 K | 55.51 J/K/mol
124.51 K | 56.3 J/K/mol
126.96 K | 57.27 J/K/mol
129.4 K | 58.21 J/K/mol
130 K | 58.4 J/K/mol
131.85 K | 59.09 J/K/mol
134.29 K | 59.99 J/K/mol
136.73 K | 60.84 J/K/mol
139.17 K | 61.67 J/K/mol
140 K | 62.1 J/K/mol
141.61 K | 62.6 J/K/mol
144.05 K | 63.49 J/K/mol
146.46 K | 64.31 J/K/mol
148.9 K | 65.12 J/K/mol
150 K | 65.6 J/K/mol
151.33 K | 65.92 J/K/mol
153.76 K | 66.8 J/K/mol
156.18 K | 67.59 J/K/mol
158.61 K | 68.21 J/K/mol
160 K | 68.93 J/K/mol
161.03 K | 69.15 J/K/mol
163.45 K | 69.96 J/K/mol
165.87 K | 70.75 J/K/mol
168.29 K | 71.39 J/K/mol
170 K | 72.09 J/K/mol
170.7 K | 72.25 J/K/mol
173.11 K | 73.03 J/K/mol
175.52 K | 73.72 J/K/mol
177.92 K | 74.42 J/K/mol
180 K | 75.12 J/K/mol
180.31 K | 75.07 J/K/mol
182.7 K | 75.83 J/K/mol
185.04 K | 76.53 J/K/mol
187.44 K | 77.24 J/K/mol
189.83 K | 77.9 J/K/mol
190 K | 78.01 J/K/mol
192.21 K | 78.51 J/K/mol
199.36 K | 80.46 J/K/mol
200 K | 80.78 J/K/mol
202.14 K | 81.27 J/K/mol
205.3 K | 82.08 J/K/mol
208.46 K | 82.89 J/K/mol
210 K | 83.44 J/K/mol
211.61 K | 83.64 J/K/mol
214.75 K | 84.46 J/K/mol
217.89 K | 85.24 J/K/mol
220 K | 85.98 J/K/mol
220.27 K | 86.55 J/K/mol
223.51 K | 87.38 J/K/mol
226.73 K | 88.15 J/K/mol
229.94 K | 88.77 J/K/mol
230 K | 88.41 J/K/mol
233.13 K | 89.33 J/K/mol
236.34 K | 89.95 J/K/mol
239.53 K | 90.87 J/K/mol
240 K | 90.75 J/K/mol
242.69 K | 91.56 J/K/mol
245.83 K | 92.05 J/K/mol
248.99 K | 92.61 J/K/mol
250 K | 92.99 J/K/mol
252.14 K | 93.33 J/K/mol
255.28 K | 94.2 J/K/mol
258.37 K | 94.93 J/K/mol
260 K | 95.13 J/K/mol
261.31 K | 95.4 J/K/mol
264.37 K | 95.93 J/K/mol
267.41 K | 96.5 J/K/mol
270 K | 97.19 J/K/mol
270.48 K | 97.19 J/K/mol
273.52 K | 97.78 J/K/mol
276.54 K | 98.45 J/K/mol
279.55 K | 99 J/K/mol
280 K | 99.17 J/K/mol
282.53 K | 99.55 J/K/mol
285.49 K | 100.2 J/K/mol
288.42 K | 100.6 J/K/mol
290 K | 101.1 J/K/mol
291.33 K | 101.2 J/K/mol
294.21 K | 101.7 J/K/mol
297.05 K | 102.3 J/K/mol
299.79 K | 102.8 J/K/mol
300 K | 102.9 J/K/mol
302.76 K | 103.4 J/K/mol
306.59 K | 104.1 J/K/mol
310.93 K | 105 J/K/mol
315.5 K | 105.8 J/K/mol
320 K | 106.5 J/K/mol and 106.3 J/K/mol
324.45 K | 106.9 J/K/mol
340 K | 109.4 J/K/mol
360 K | 112.3 J/K/mol
373 K | 113.9 J/K/mol
400 K | 117.1 J/K/mol
450 K | 122 J/K/mol
500 K | 126 J/K/mol
550 K | 129.4 J/K/mol
600 K | 132.4 J/K/mol
650 K | 135.2 J/K/mol
700 K | 137.7 J/K/mol
750 K | 140.1 J/K/mol
800 K | 142.4 J/K/mol
850 K | 144.6 J/K/mol
900 K | 146.7 J/K/mol
950 K | 148.7 J/K/mol
1000 K | 150.8 J/K/mol
1050 K | 152.8 J/K/mol
1100 K | 154.7 J/K/mol
1150 K | 156.6 J/K/mol
1200 K | 158.5 J/K/mol
1250 K | 160.4 J/K/mol
1300 K | 162.3 J/K/mol
1350 K | 164.2 J/K/mol
1400 K | 166 J/K/mol
1450 K | 167.9 J/K/mol
1500 K | 169.7 J/K/mol
1550 K | 171.5 J/K/mol
1600 K | 173.4 J/K/mol
